Experimental data as given in ChEMBL document CHEMBL3046948, “Synthesis and SAR investigation of natural phenylpropene-derived methoxylated cinnamaldehydes and their novel Schiff bases as potent antimicrobial and antioxidant agents” (2013).
Activity calls are given as the source filed them.

Assays:
Assay type in all cases: functional
[1] = tested on: Burkholderia cepacia; experiment: Antimicrobial activity against Burkholderia cepacia MTCC 438 assessed as growth inhibition after 24 hr by broth microdilution method
[2] = tested on: Micrococcus luteus; experiment: Antimicrobial activity against Micrococcus luteus MTCC 2470 assessed as growth inhibition after 24 hr by broth microdilution method
[3] = tested on: Aspergillus niger; experiment: Antimicrobial activity against Aspergillus niger MTCC 404 assessed as growth inhibition after 5 days by broth microdilution method
[4] = tested on: Trichophyton rubrum; experiment: Antimicrobial activity against Trichophyton rubrum MTCC 296 assessed as growth inhibition after 5 days by broth microdilution method
[5] = tested on: Aspergillus parasiticus; experiment: Antimicrobial activity against Aspergillus parasiticus MTCC 2797 assessed as growth inhibition after 5 days by broth microdilution method
[6] = tested on: Candida albicans; experiment: Antimicrobial activity against Candida albicans MTCC 3017 assessed as growth inhibition after 24 hr by broth microdilution method
[7] = tested on: Enterobacter cloacae; experiment: Antimicrobial activity against Enterobacter cloacae MTCC 509 assessed as growth inhibition after 24 hr by broth microdilution method
[8] = tested on: Pichia kudriavzevii; experiment: Antimicrobial activity against Pichia kudriavzevii MTCC 231 assessed as growth inhibition after 24 hr by broth microdilution method
[9] = tested on: Aspergillus sydowii; experiment: Antimicrobial activity against Aspergillus sydowii MTCC 4335 assessed as growth inhibition after 5 days by broth microdilution method
[10] = tested on: Escherichia coli; experiment: Antimicrobial activity against Escherichia coli MTCC 43 assessed as growth inhibition after 24 hr by broth microdilution method
[11] = tested on: Bacillus subtilis; experiment: Antimicrobial activity against Bacillus subtilis MTCC 121 assessed as growth inhibition after 24 hr by broth microdilution method
[12] = tested on: Pseudomonas aeruginosa; experiment: Antimicrobial activity against Pseudomonas aeruginosa MTCC 424 assessed as growth inhibition after 24 hr by broth microdilution method
[13] = tested on: Staphylococcus aureus; experiment: Antimicrobial activity against Staphylococcus aureus MTCC 3160 assessed as growth inhibition after 24 hr by broth microdilution method
[14] = tested on: Klebsiella pneumoniae; experiment: Antimicrobial activity against Klebsiella pneumoniae MTCC 109 assessed as growth inhibition after 24 hr by broth microdilution method

Measured: MIC

O=C/C=C/c1ccccc1 [CINNAMALDEHYDE]
1.89 mM: [1]; MTCC 438, 24 h | [3]; MTCC 404, 120 h | [7]; MTCC 509, 24 h | [10]; MTCC 43, 24 h | [11]; MTCC 121, 24 h | [12]; MTCC 424, 24 h | [13]; MTCC 3160, 24 h
3.78 mM: [2]; MTCC 2470, 24 h | [5]; MTCC 2797, 120 h | [9]; MTCC 4335, 120 h | [14]; MTCC 109, 24 h
0.47 mM: [4]; MTCC 296, 120 h | [6]; MTCC 3017, 24 h | [8]; MTCC 231, 24 h

O=Cc1ccc2c(c1)OCO2 [PIPERONAL]
3.33 mM: [2]; MTCC 2470, 24 h | [3]; MTCC 404, 120 h | [5]; MTCC 2797, 120 h | [7]; MTCC 509, 24 h | [9]; MTCC 4335, 120 h | [10]; MTCC 43, 24 h | [13]; MTCC 3160, 24 h | [14]; MTCC 109, 24 h
0.83 mM: [4]; MTCC 296, 120 h | [6]; MTCC 3017, 24 h | [8]; MTCC 231, 24 h | [12]; MTCC 424, 24 h
inactive: [1]
6.66 mM: [11]; MTCC 121, 24 h

CCOC(=O)/C=C/c1ccc2c(c1)OCO2
0.14 mM: [5]; MTCC 2797, 120 h | [9]; MTCC 4335, 120 h
0.56 mM: [3]; MTCC 404, 120 h | [12]; MTCC 424, 24 h
inactive: [1] | [2] | [4] | [6] | [7] | [8] | [10] | [11] | [13] | [14]

C/C=C/c1ccc2c(c1)OCO2 [ISOSAFROLE]
inactive: [1] | [2] | [3] | [5] | [6] | [7] | [8] | [9] | [10] | [11] | [12] | [13] | [14]
3.08 mM: [4]; MTCC 296, 120 h

COc1ccc(/C=C/C=O)cc1 [PARA-METHOXY CINNAMALDEHYDE]
6.16 mM: [11]; MTCC 121, 24 h
0.77 mM: [4]; MTCC 296, 120 h | [6]; MTCC 3017, 24 h | [8]; MTCC 231, 24 h | [12]; MTCC 424, 24 h
inactive: [1]
3.08 mM: [2]; MTCC 2470, 24 h | [3]; MTCC 404, 120 h | [5]; MTCC 2797, 120 h | [7]; MTCC 509, 24 h | [9]; MTCC 4335, 120 h | [10]; MTCC 43, 24 h | [13]; MTCC 3160, 24 h | [14]; MTCC 109, 24 h

C/C=C/c1cc(OC)c(OC)cc1OC [TRANS-ASARONE]
1.2 mM: [5]; MTCC 2797, 120 h | [8]; MTCC 231, 24 h
inactive: [1] | [2] | [10] | [11] | [12] | [13] | [14]
4.8 mM: [3]; MTCC 404, 120 h
9.6 mM: [7]; MTCC 509, 24 h
0.6 mM: [4]; MTCC 296, 120 h | [6]; MTCC 3017, 24 h
2.4 mM: [9]; MTCC 4335, 120 h

COc1cc(OC)c(OC)cc1C=O [ASARALDEHYDE]
10.2 mM: [7]; MTCC 509, 24 h | [10]; MTCC 43, 24 h | [14]; MTCC 109, 24 h
5.1 mM: [1]; MTCC 438, 24 h | [3]; MTCC 404, 120 h | [9]; MTCC 4335, 120 h | [11]; MTCC 121, 24 h | [13]; MTCC 3160, 24 h
2.55 mM: [2]; MTCC 2470, 24 h | [5]; MTCC 2797, 120 h | [6]; MTCC 3017, 24 h | [8]; MTCC 231, 24 h | [12]; MTCC 424, 24 h
0.16 mM: [4]; MTCC 296, 120 h

COc1ccc(/C=C/C=O)cc1OC [3,4-DIMETHOXY CINNAMALDEHYDE]
10.4 mM: [7]; MTCC 509, 24 h | [10]; MTCC 43, 24 h | [14]; MTCC 109, 24 h
5.2 mM: [1]; MTCC 438, 24 h | [3]; MTCC 404, 120 h | [9]; MTCC 4335, 120 h | [11]; MTCC 121, 24 h | [13]; MTCC 3160, 24 h
2.6 mM: [2]; MTCC 2470, 24 h | [4]; MTCC 296, 120 h | [5]; MTCC 2797, 120 h | [6]; MTCC 3017, 24 h | [8]; MTCC 231, 24 h | [12]; MTCC 424, 24 h

O=C(O)/C=C/c1ccccc1 [CINNAMIC ACID]
6.75 mM: [1]; MTCC 438, 24 h | [2]; MTCC 2470, 24 h | [7]; MTCC 509, 24 h | [11]; MTCC 121, 24 h | [14]; MTCC 109, 24 h
3.37 mM: [5]; MTCC 2797, 120 h | [13]; MTCC 3160, 24 h
1.68 mM: [3]; MTCC 404, 120 h | [9]; MTCC 4335, 120 h
0.42 mM: [4]; MTCC 296, 120 h | [6]; MTCC 3017, 24 h
13.5 mM: [10]; MTCC 43, 24 h | [12]; MTCC 424, 24 h
0.84 mM: [8]; MTCC 231, 24 h

CCCCCCCCCCCCOC(=O)/C=C/c1ccccc1
inactive: [1] | [2] | [3] | [5] | [7] | [9] | [10] | [11] | [12] | [13]
0.39 mM: [8]; MTCC 231, 24 h
3.16 mM: [14]; MTCC 109, 24 h
0.79 mM: [4]; MTCC 296, 120 h | [6]; MTCC 3017, 24 h

COc1cc(OC)c(OC)cc1/C=C/C=O
8.99 mM: [4]; MTCC 296, 120 h | [6]; MTCC 3017, 24 h | [8]; MTCC 231, 24 h
4.5 mM: [9]; MTCC 4335, 120 h
2.25 mM: [2]; MTCC 2470, 24 h
inactive: [1] | [3] | [5] | [7] | [10] | [11] | [12] | [13] | [14]

CCOc1ccc(/C=C/C=O)cc1OC
9.7 mM: [7]; MTCC 509, 24 h | [10]; MTCC 43, 24 h | [14]; MTCC 109, 24 h
4.85 mM: [1]; MTCC 438, 24 h | [2]; MTCC 2470, 24 h | [3]; MTCC 404, 120 h | [8]; MTCC 231, 24 h | [9]; MTCC 4335, 120 h | [11]; MTCC 121, 24 h | [12]; MTCC 424, 24 h
2.42 mM: [4]; MTCC 296, 120 h | [5]; MTCC 2797, 120 h | [6]; MTCC 3017, 24 h | [13]; MTCC 3160, 24 h

C/C=C/c1ccc(OC)cc1 [ANETHOLE]
6.74 mM: [6]; MTCC 3017, 24 h | [8]; MTCC 231, 24 h
inactive: [1] | [2] | [3] | [4] | [5] | [7] | [9] | [10] | [11] | [12] | [13] | [14]

C=CCc1ccc2c(c1)OCO2 [SAFROLE]
inactive: [1] | [2] | [3] | [5] | [7] | [9] | [10] | [11] | [12] | [13] | [14]
6.16 mM: [4]; MTCC 296, 120 h | [6]; MTCC 3017, 24 h | [8]; MTCC 231, 24 h

OC/C=C/c1ccccc1 [CINNAMIC ALCOHOL]
14.9 mM: [13]; MTCC 3160, 24 h
7.45 mM: [2]; MTCC 2470, 24 h | [7]; MTCC 509, 24 h | [10]; MTCC 43, 24 h | [11]; MTCC 121, 24 h
3.72 mM: [3]; MTCC 404, 120 h | [5]; MTCC 2797, 120 h | [8]; MTCC 231, 24 h | [9]; MTCC 4335, 120 h | [12]; MTCC 424, 24 h | [14]; MTCC 109, 24 h
1.86 mM: [1]; MTCC 438, 24 h | [4]; MTCC 296, 120 h | [6]; MTCC 3017, 24 h

CC1(C)S[C@@H]2[C@H](NC(=O)[C@H](N)c3ccccc3)C(=O)N2[C@H]1C(=O)O [AMPICILLIN]
0.08 mM: [10]; MTCC 43, 24 h
5.7 mM: [1]; MTCC 438, 24 h | [7]; MTCC 509, 24 h | [14]; MTCC 109, 24 h
0.01 mM: [2]; MTCC 2470, 24 h | [11]; MTCC 121, 24 h | [13]; MTCC 3160, 24 h
2.8 mM: [12]; MTCC 424, 24 h

NYSTATIN
0.004 mM: [9]
0.03 mM: [3] | [8]
0.06 mM: [5]
0.008 mM: [4] | [6]

COc1ccc(C=O)cc1 [ANISALDEHYDE]
0.92 mM: [4]; MTCC 296, 120 h
3.67 mM: [6]; MTCC 3017, 24 h | [8]; MTCC 231, 24 h
7.34 mM: [3]; MTCC 404, 120 h
14.7 mM: [7]; MTCC 509, 24 h | [10]; MTCC 43, 24 h | [11]; MTCC 121, 24 h | [14]; MTCC 109, 24 h
1.83 mM: [5]; MTCC 2797, 120 h | [9]; MTCC 4335, 120 h | [13]; MTCC 3160, 24 h
inactive: [2] | [12]
